Each compound was assayed on human peripheral blood mononuclear cells (PBMC) (assay: PBMC cytotoxicity assay (CellTiter-Glo)). Conditions: cytotoxicity in stimulated PBMC, recorded as pCC50.
Format: cell-based
Description: Compounds of the present invention were tested via high-throughput cellular assays utilizing detection of kynurenine via mass spectrometry and cytotoxicity as end-points. […] Compounds with IDO1 inhibitory properties decreased the amount of kynurenine produced by the cells via the tryptophan catabolic pathway. Cellular toxicity due to the effect of compound treatment was measured using CellTiter-Glo® reagent (CTG) (Promega Corporation, Madison, Wis.), which is based on luminescent detection of ATP, an indicator of metabolically active cells.
In preparation for the assays, test compounds were serially diluted 3-fold in DMSO from a typical top concentration of 1 mM or 5 mM and plated at 0.5 μL in 384-well, polystyrene, clear bottom, tissue culture treated plates with lids (Greiner Bio-One, Kremsmünster, Austria) to generate 11-point dose response curves. Low control wells (0% kynurenine or 100% cytotoxicity) contained either 0.5 μL of DMSO in the presence of unstimulated (−IFN-γ/−LPS) PBMCs for the mass spectrometry assay or 0.5 μL of DMSO in the absence of cells for the cytotoxicity assay, and high control wells (100% kynurenine or 0% cytotoxicity) contained 0.5 μL of DMSO in the presence of stimulated (+IFN-γ/+LPS) PBMCs for both the mass spectrometry and cytotoxicity assays.
Frozen stocks of PBMCs were washed and recovered in RPMI 1640 medium (Thermo Fisher Scientific, Inc., Waltham, Mass.) supplemented with 10% v/v heat-inactivated fetal bovine serum (FBS) (Thermo Fisher Scientific, Inc., Waltham, Mass.), and 1× penicillin-streptomycin antibiotic solution (Thermo Fisher Scientific, Inc., Waltham, Mass.). The cells were diluted to 1,000,000 cells/mL in the supplemented RPMI 1640 medium. 50 μL of either the cell suspension, for the mass spectrometry assay, or medium alone, for the cytotoxicity assay, were added to the low control wells, on the previously prepared 384-well compound plates, resulting in 50,000 cells/well or 0 cells/well respectively. IFN-γ and LPS were added to the remaining cell suspension at final concentrations of 100 ng/ml and 50 ng/ml respectively, and 50 μL of the stimulated cells were added to all remaining wells on the 384-well compound plates. The plates, with lids, were then placed in a 37° C., 5% CO2 humidified incubator for 2 days.
Following incubation, the 384-well plates were removed from the incubator and allowed to equilibrate to room temperature for 30 minutes. For the cytotoxicity assay, CellTiter-Glo® was prepared according to the manufacturer's instructions, and 40 μL were added to each plate well. After a twenty minute incubation at room temperature, luminescence was read on an EnVision® Multilabel Reader (PerkinElmer Inc., Waltham, Mass.). For the mass spectrometry assay, 10 μL of supernatant from each well of the compound-treated plates were added to 40 μL of acetonitrile, containing 10 μM of an internal standard for normalization, in 384-well, polypropylene, V-bottom plates (Greiner Bio-One, Kremsmünster, Austria) to extract the organic analytes. Following centrifugation at 2000 rpm for 10 minutes, 10 μL from each well of the acetonitrile extraction plates were added to 90 μL of sterile, distilled H2O in 384-well, polypropylene, V-bottom plates for analysis of kynurenine and the internal standard on the RapidFire 300 (Agilent Technologies, Santa Clara, Calif.) and 4000 QTRAP MS (SCIEX, Framingham, Mass.). MS data were integrated using Agilent Technologies' RapidFire Integrator software, and data were normalized for analysis as a ratio of kynurenine to the internal standard.

Structure (SMILES) | PBMC_TOX PXC50
C[C@H](CC(=O)O)c1cnc(N(CC2CC2)C2CCOCC2)c(Nc2ccc(Cl)cn2)c1 [Example 9, (R)-3-(5-((5-chloropyridin-2-yl)amino)-6-((cyclopropylmethyl)(tetrahydro-2H-pyran-4-yl)amino)pyridin-3-yl)butanoic acid] | <5.0
COC1CCC(N(CC(C)C)c2ncc(C(C)CC(=O)O)cc2Nc2ccc(C#N)cn2)CC1 (stereo not drawn) [Example 53, (3RS)-3-{5-[(5-cyanopyridin-2-yl)amino]-6-[(2-methylpropyl)[(1rs&,4rs&)-4-methoxycyclohexyl]amino]pyridin-3-yl}butanoic acid] | <5.0
CC(C)CN(CC(C)C)c1ncc([C@H](C)CC(=O)O)cc1Nc1nc(C(C)C)ns1 [Example 54, (3R)-3-{6-[bis(2-methylpropyl)amino]-5-{[3-(propan-2-yl)-1,2,4-thiadiazol-5-yl]amino}pyridin-3-yl}butanoic acid] | <5.0
CC(C)CN(c1ncc([C@H](C)CC(=O)O)cc1Nc1ccc(Cl)c(C#N)n1)C1CCOCC1 [Example 70, (3R)-3-{5-[(5-chloro-6-cyanopyridin-2-yl)amino]-6-[(2-methylpropyl)(oxan-4-yl)amino]pyridin-3-yl}butanoic acid] | <5.0
CC(C)CN(c1ncc([C@H](C)CC(=O)O)cc1Nc1cnc(Cl)cn1)C1CCOCC1 [Example 77, (3R)-3-{5-[(5-chloropyrazin-2-yl)amino]-6-[(2-methylpropyl)(oxan-4-yl)amino]pyridin-3-yl}butanoic acid] | <5.0
CC(C)CN(c1ncc([C@H](C)CC(=O)O)cc1Nc1ccc(Cl)cn1)C1CCCCC1 [Example 13, (R)-3-(5-((5-chloropyridin-2-yl)amino)-6-(cyclohexyl(isobutyl)amino)pyridin-3-yl)butanoic acid] | <5.0
CC(C)CN(c1ncc([C@H](C)CC(=O)O)cc1Nc1ccc(Cl)nc1)C1CC(F)(F)C1 [Example 19, (R)-3-(5-((6-chloropyridin-3-yl)amino)-6-((3,3-difluorocyclobutyl)(isobutyl)amino)pyridin-3-yl) butanoic acid] | <5.0
CC(C)CN(c1ncc(C(C)CC(=O)O)cc1Nc1nc(C2CC2)ns1)C1CCOCC1 (centres unmarked) [Example 37, 3-{5-[(3-cyclopropyl-1,2,4-thiadiazol-5-yl)amino]-6-[(2-methylpropyl)(oxan-4-yl)amino]pyridin-3-yl}butanoic acid] | <5.0
CC(C)CN(c1ncc([C@H](C)CC(=O)O)cc1Nc1n[nH]c(C(F)(F)F)n1)C1CCOCC1 [Example 42, (3R)-3-{6-[(2-methylpropyl)(oxan-4-yl)amino]-5-{[5-(trifluoromethyl)-1H-1,2,4-triazol-3-yl]amino}pyridin-3-yl}butanoic acid] | <5.0
CC(C)CN(c1ncc([C@H](C)CC(=O)O)cc1Nc1nc(C(C)C)ns1)C1CCCCC1 [Example 14, (R)-3-(6-(cyclohexyl(isobutyl)amino)-5-((3-isopropyl-1,2,4-thiadiazol-5-yl)amino)pyridin-3-yl)butanoic acid] | <5.0
CC(C)CN(c1ncc([C@H](C)CC(=O)O)cc1Nc1nc(C(F)(F)F)ns1)[C@H]1CC[C@H](O)CC1 [Example 28, (R)-3-(6-(((1r,4R)-4-hydroxycyclohexyl)(isobutyl)amino)-5-((3-(trifluoromethyl)-1,2,4-thiadiazol-5-yl)amino)pyridin-3-yl)butanoic acid] | <5.0
COCc1nsc(Nc2cc([C@H](C)CC(=O)O)cnc2N(CC(C)C)C2CCOCC2)n1 [Example 56, (3R)-3-(5-{[3-(methoxymethyl)-1,2,4-thiadiazol-5-yl]amino}-6-[(2-methylpropyl)(oxan-4-yl)amino]pyridin-3-yl)butanoic acid] | <5.0
CC(C)CN(c1ncc([C@H](C)CC(=O)O)cc1Nc1cnc(C#N)cn1)C1CCOCC1 [Example 67, (3R)-3-{5-[(5-cyanopyrazin-2-yl)amino]-6-[(2-methylpropyl)(oxan-4-yl)amino]pyridin-3-yl}butanoic acid] | <5.0
Cc1nnc(Nc2cc([C@H](C)CC(=O)O)cnc2N(CC(C)C)C2CCCCC2)s1 [Example 45, (3R)-3-{6-[cyclohexyl(2-methylpropyl)amino]-5-[(5-methyl-1,3,4-thiadiazol-2-yl)amino]pyridin-3-yl}butanoic acid] | <5.0
CC(C)CN(c1ncc([C@H](C)CC(=O)O)cc1Nc1ccc(C(N)=O)nn1)C1CCOCC1 [Example 73, (3R)-3-{5-[(6-carbamoylpyridazin-3-yl)amino]-6-[(2-methylpropyl)(oxan-4-yl)amino]pyridin-3-yl}butanoic acid] | <5.0
CC(C)CN(c1ncc([C@H](C)CC(=O)O)cc1Nc1ccc(C(F)(F)F)nn1)C1CCOCC1 [Example 66, (3R)-3-{6-[(2-methylpropyl)(oxan-4-yl)amino]-5-{[6-(trifluoromethyl)pyridazin-3-yl]amino}pyridin-3-yl}butanoic acid] | <5.0
CO[C@H]1CC[C@@H](N(CC(C)C)c2ncc([C@H](C)CC(=O)O)cc2Nc2ccc(C#N)nc2)CC1 [Example 23, (R)-3-(5-((6-cyanopyridin-3-yl)amino)-6-(isobutyl((1s,4S)-4-methoxycyclohexyl)amino)pyridin-3-yl)butanoic acid] | <5.0
CC(C)CN(c1ncc([C@H](C)CC(=O)O)cc1Nc1nc(C(C)C)ns1)C1CCOCC1 [Example 8] | <5.0
COCc1ccc(Nc2cc(C(C)CC(=O)O)cnc2N(CC(C)C)C2CCC(OC)CC2)nc1 (stereo not drawn) [Example 47, (3RS)-3-(5-{[5-(methoxymethyl)pyridin-2-yl]amino}-6-[(2-methylpropyl)[(1rs&,4rs&)-4-methoxycyclohexyl]amino]pyridin-3-yl)butanoic acid] | <5.0
CC(C)CN(c1ncc([C@H](C)CC(=O)O)cc1Nc1ccc(C#N)nn1)C1CCOCC1 [Example 74, (3R)-3-{5-[(6-cyanopyridazin-3-yl)amino]-6-[(2-methylpropyl)(oxan-4-yl)amino]pyridin-3-yl}butanoic acid] | <5.0
CO[C@H]1CC[C@@H](N(CC(C)C)c2ncc([C@H](C)CC(=O)O)cc2Nc2nc(C(F)(F)F)ns2)CC1 [Example 22, (R)-3-(6-(isobutyl((1s,4S)-4-methoxycyclohexyl)amino)-5-((3-(trifluoromethyl)-1,2,4-thiadiazol-5-yl)amino)pyridin-3-yl) butanoic acid] | <5.4
CC(C)CN(c1ncc([C@H](C)CC(=O)O)cc1Nc1ccc(Cl)nn1)C1CCOCC1 [Example 60, (3R)-3-{5-[(6-chloropyridazin-3-yl)amino]-6-[(2-methylpropyl)(oxan-4-yl)amino]pyridin-3-yl}butanoic acid] | <5.0
CC(C)CN(CC(F)F)c1ncc([C@H](C)CC(=O)O)cc1Nc1ccc(Cl)cn1 [Example 71, (3R)-3-{5-[(5-chloropyridin-2-yl)amino]-6-[(2,2-difluoroethyl)(2-methylpropyl)amino]pyridin-3-yl}butanoic acid] | <5.0
CC(C)CN(c1ncc([C@H](C)CC(=O)O)cc1Nc1n[nH]c(C(F)(F)F)n1)C1CCCCC1 [Example 10, (R)-3-(6-(cyclohexyl(isobutyl)amino)-5-((5-(trifluoromethyl)-1H-1,2,4-triazol-3-yl)amino)pyridin-3-yl)butanoic acid] | <5.0
CC(C)CN(CC(C)C)c1nnc(C(C)CC(=O)O)cc1Nc1nc(C(F)(F)F)ns1 (centres unmarked) [Example 72, 3-{6-[bis(2-methylpropyl)amino]-5-{[3-(trifluoromethyl)-1,2,4-thiadiazol-5-yl]amino}pyridazin-3-yl}butanoic acid] | <5.0
CC(C)CN(c1ncc([C@H](C)CC(=O)O)cc1Nc1nc(C2CC2)ns1)C1CCOCC1 [Example 41, (3R)-3-{5-[(3-cyclopropyl-1,2,4-thiadiazol-5-yl)amino]-6-[(2-methylpropyl)(oxan-4-yl)amino]pyridin-3-yl}butanoic acid] | <5.0
